Patent US9676796B2, “Tricyclic benzoxaborole compound, preparation method and use thereof” (DONG-A ST CO., LTD., priority 2013, dated 2017)
In brackets after ≈: the same amount, converted by molar mass.

Columns and labels:
[1] = system: Escherichia coli (E. coli); assay: Antibacterial activity in vitro, agar plate dilution MIC; format: cell-based; details: clinical isolate, Mueller-Hinton agar dilution
Protocol: (§1) The antibacterial activity of the novel derivatives prepared by EXAMPLE 1 to 5 was evaluated in vitro by agar plate dilution method using Mueller-Hinton agar according to the NCCLS (National Committee for Clinical Laboratory Standards. 2000. Methods for dilution antimicrobial susceptibility tests for bacteria that grow aerobically. Approved standard, NCCLS document M7-A5, 5th ed, vol 20, no. 2. National Committee for Clinical Laboratory Standards, Wayne, Pa.). The test strains were clinical isolates from patients in general hospital in Korea from 2010 to 2013. The antibacterial activity was examined against important gram-negative bacteria including carbapenem-resistant Acinetobacter baumannii (A. baumannii), carbapenem-resistant Pseudomonas aeruginosa (P. aeruginosa), Escherichia coli (E. coli), and Klebsiella pneumonia (K. pneumonia) and was expressed as minimum inhibitory concentrations (MIC, μg/ml) in table 1.
(§2) The antibacterial activity of compounds (in Preparation Examples 1 to 4) and meropenem (MEPM, carbapenem-based antibiotics) were examined according to the same method shown as EXPERIMENTAL EXAMPLE 1.

[2] = system: P. mirabilis; assay: as above; format: cell-based; details: Proteus mirabilis; clinical isolate, Mueller-Hinton agar dilution
Protocol: as §1, §2

[3] = system: M. morganii; assay: as above; format: cell-based; details: Morganella morganii; clinical isolate, Mueller-Hinton agar dilution
Protocol: as §1, §2

[4] = system: K. oxytoca; assay: as above; format: cell-based; details: Klebsiella oxytoca; clinical isolate, Mueller-Hinton agar dilution
Protocol: as §1, §2

[5] = system: E. cloacae; assay: as above; format: cell-based; details: Enterobacter cloacae; clinical isolate, Mueller-Hinton agar dilution
Protocol: as §1, §2

[6] = system: carbapenem-resistant Pseudomonas aeruginosa (P. aeruginosa); assay: as above; format: cell-based; details: carbapenem-resistant clinical isolate, Mueller-Hinton agar dilution
Protocol: as §1, §2

[7] = system: C. freundii; assay: as above; format: cell-based; details: Citrobacter freundii; clinical isolate, Mueller-Hinton agar dilution
Protocol: as §1, §2

[8] = system: P. vulgaris; assay: as above; format: cell-based; details: Proteus vulgaris; clinical isolate, Mueller-Hinton agar dilution
Protocol: as §1, §2

[9] = system: Klebsiella pneumoniae (K. pneumoniae); assay: as above; format: cell-based; details: clinical isolate, Mueller-Hinton agar dilution
Protocol: as §1, §2

[10] = system: carbapenem-resistant Acinetobacter baumannii (A. baumannii); assay: as above; format: cell-based; details: carbapenem-resistant clinical isolate, Mueller-Hinton agar dilution
Protocol: as §1, §2

[11] = system: E. aerogenes; assay: as above; format: cell-based, Enterobacter aerogenes; details: Klebsiella aerogenes; clinical isolate, Mueller-Hinton agar dilution
Protocol: as §1, §2

[12] = system: Carbapenem-resistant Acinetobacter baumannii BAA-1605; assay: Antibacterial activity in animal infection model (mouse systemic infection); format: in vivo; details: for ED50: Acinetobacter baumannii, BAA1605, read-out: ED50 (dose needed for the 50 percentage survival rate); for ED50 times as low as ED50 value of Compound C: mouse systemic infection, A. baumannii BAA-1605, oral
Protocol: Antibacterial activity of the compounds from the present invention was examined in vivo according to the method described in S. Choi et al (Antimicrob. Agents Chemother 56 (9) 4713-4717. 2012).
Carbapenem-resistant Acinetobacter baumannii BAA-1605 was used as test strain and the test strain was intraperitoneally injected into mouse to cause the systemic infection. After 1 hour of infection, the compounds of EXAMPLEs 1, 2, 3, 5 and the control compounds were administrated orally to the mice.

[13] = system: S. marcescens; assay: Antibacterial activity in vitro, agar plate dilution MIC; format: cell-based; details: Serratia marcescens; clinical isolate, Mueller-Hinton agar dilution
Protocol: as §1

[14] = system: N. gonorrhoeae; assay: as above; format: cell-based; details: Neisseria gonorrhoeae; clinical isolate, Mueller-Hinton agar dilution

Row | SMILES | MIC [1] [µg/mL] | MIC [2] [µg/mL] | MIC [3] [µg/mL] | MIC [4] [µg/mL] | MIC [5] [µg/mL] | MIC [6] [µg/mL] | MIC [7] [µg/mL] | MIC [8] [µg/mL] | MIC [9] [µg/mL] | MIC [10] [µg/mL] | MIC [11] [µg/mL] | ED50 [12] [mg/kg] | MIC [13] [µg/mL] | MIC [14] [µg/mL] | ED50 times as low as ED50 value of Compound C [12] [times]
1 | CC1COc2cccc3c2B(O1)OC3CN.Cl (centres unmarked) [Compound B, (8-methyl-7,8-dihydro-2H-1,6,9-trioxa-9a-borabenzo[cd]azulen-2-yl)methanamine hydrochloride, reference compound] | 2 | 8 | 4 | 2 | 2 | 64 | 1 | 16 | 4 | 8 | 2 | > 20 |  |  | 
2 | C[C@@H](O)[C@H]1C(=O)N2C(C(=O)O)=C(S[C@@H]3CN[C@H](C(=O)N(C)C)C3)[C@H](C)[C@H]12 [MEPM, meropenem, reference compound] | < 0.0313 | 0.0625 (≈ 0.163 µM) | 0.125 (≈ 0.326 µM) | < 0.0313 | < 0.0313 | 32 (≈ 83.4 µM) | < 0.0313 | 0.0625 (≈ 0.163 µM) | < 0.0313 | 32 (≈ 83.4 µM) | < 0.0313 |  |  |  | 
3 | C[C@H]1COB2O[C@H](CN)c3cccc(c32)O1.Cl [EXAMPLE 5, ((2S, 7S)-7-methyl-7,8-dihydro-2H-1,6,9-trioxa-9a-borabenzo[cd]azulen-2-yl)methanamine hydrochloride] | 1 | 2 | 0.5 | 2 | 1 | 8 | 1 | 2 | 2 | 4 | 4 | 1.36 | 4 | 2 | 6.69
4 | Cl.NCC1OB2OCC(CO)Oc3cccc1c32 (centres unmarked) [compound D, (2-(aminomethyl)-7,8-dihydro-2H-1,6,9-trioxa-9a-borabenzo[cd]azulen-7-yl)methanol hydrochloride, reference compound] | 8 | 16 | 8 | 8 | 8 | 64 | 4 | 16 | 16 | 16 | 8 |  |  |  | 
5 | C[C@@H]1COB2O[C@H](CN)c3cccc(c32)O1.Cl [EXAMPLE 3, ((2S,7R)-7-methyl-7,8-dihydro-2H-1,6,9-trioxa-9a-borabenzo[cd]azulen-2-yl)methanamine hydrochloride] | 1 | 2 | 1 | 1 | 1 | 16 | 1 | 2 | 2 | 1 | 2 | 0.909 | 4 | 0.5 | 9.98
6 | C[C@@H]1COB2O[C@H](CN)c3cccc(c32)O1 [compound 4, ((2S,7R)-7-methyl-7,8-dihydro-2H-1,6,9-trioxa-9a-borabenzo[cd]azulen-2-yl) methanamine] | 1 (≈ 4.57 µM) | 1 (≈ 4.57 µM) | 0.5 (≈ 2.28 µM) | 1 (≈ 4.57 µM) | 1 (≈ 4.57 µM) | 8 (≈ 36.5 µM) | 0.5 (≈ 2.28 µM) | 1 (≈ 4.57 µM) | 1 (≈ 4.57 µM) | 1 (≈ 4.57 µM) | 1 (≈ 4.57 µM) |  | 2 (≈ 9.13 µM) | 0.5 (≈ 2.28 µM) | 
7 | CC1COB2O[C@H](CN)c3cccc(c32)O1.Cl (stereo partly drawn) [EXAMPLE 2, ((2S)-7-methyl-7,8-dihydro-2H-1,6,9-trioxa-9a-borabenzo[cd]azulen-2-yl)methanamine hydrochloride] | 1 | 2 | 1 | 2 | 1 | 8 | 1 | 2 | 2 | 2 | 2 | 1.36 | 4 | 1 | 6.69
8 | Cl.NC[C@H]1OB2O[C@H](CO)COc3cccc1c32 [Compound C, ((2S,8R)-2-(aminomethyl)-7,8-dihydro-2H-1,6,9-trioxa-9a-borabenzo[cd]azulen-8-yl)methanol hydrochloride, reference compound] | 2 | 8 | 2 | 2 | 2 | 8 | 2 | 8 | 2 | 4 | 4 | 9.07 |  |  | 
9 | Cl.NCC1OB2OCCOc3cccc1c32 (centres unmarked) [Compound A, (7,8-dihydro-2H-1,6,9-trioxa-9a-borabenzo[cd]azulen-2-yl)methanamine, reference compound] | 2 | 8 | 2 | 2 | 2 | 8 | 1 | 32 | 4 | > 128 | 2 | > 20 |  |  | 
10 | CC1COB2OC(CN)c3cccc(c32)O1.Cl (centres unmarked) [EXAMPLE 1, (7-methyl-7,8-dihydro-2H-1,6,9-trioxa-9a-borabenzo[cd]azulen-2-yl)methanamine hydrochloride] | 2 | 2 | 2 | 2 | 2 | 32 | 1 | 4 | 2 | 4 | 4 | 1.75 | 4 | 2 | 5.18
